Reference: article PMC3660367, “MARCKS Protein Is Phosphorylated and Regulates Calcium Mobilization during Human Acrosomal Exocytosis” (PLoS ONE, 2013)
No end group written: not given here.

Tests used:
[1] = test system: intracellular calcium levels in human spermatozoa; test: Intracellular calcium measurement of human spermatozoa (Fluo-3-AM); assay type: cell-based; conditions: intact sperm, Fluo-3-AM 2 µM; 4 µM ED-TMR 30 min before 15 µM progesterone; three experiments
Description: Calcium levels were measured in sperm suspensions using the intracellular fluorescent probe Fluo-3-AM. Motile sperm were adjusted to a concentration of 5–10 ×10^6 cells/ml and loaded with the permeable form of the dye (Fluo-3-AM, 2 µM) for 30 min at 37°C. Cells were washed once and resuspended in HTF. Sperm suspensions were transferred to thermostated (37°C) cuvettes for fluorescence measurements and stirred constantly. At the indicated times, 15 µM progesterone was added to the samples. When indicated, sperm where incubated 30 min in presence of 4 µM of the permeable tetramethylrhodamine-labeled MARCKS ED (ED-TMR) before adding progesterone. Fluo-3 fluorescence (λEx = 505 nm, λEm = 525 nm emission) was recorded in an AMINCO-Bowman Series 2 (AB2) spectrofluorometer. […] To calibrate the maximal response, intracellular calcium concentration ([Ca^2+]i) was determined using Triton X-100 (0.1%). […]
Figure 5 Assessing MARCKS function on acrosomal exocytosis in non-permeabilized sperm. […] The increase in fluorescence is expressed as (F/F0)-1 ((maximum fluorescence intensity/initial fluorescence)-1) versus time in seconds. […] (D) Quantification of three independent experiments. […] Phosphorylated MARCKS was detected by Western blot assay using an anti-phospho-MARCKS antibody. […] Phosphorylated MARCKS was detected by Western blot assay using an anti-phospho-MARCKS antibody. […]

[2] = test system: living human sperm; test: Permeation of ED-TMR into non-permeabilized human sperm (fluorescence microscopy, trypsin treatment before fixation); assay type: cell-based; conditions: 4 µM ED-TMR 30 min 37°C, then 0.5 µg/ml trypsin 30 min 37°C before fixation
Text: So far all results were obtained using the SLO-permeabilized human sperm model. […] Fortunately, MARCKS ED meets this requirement and it can be assayed in acrosomal exocytosis in non-permeabilized sperm. To investigate the function of MARCKS in intact cells, we analyzed the effect of a permeable peptide corresponding to wt MARCKS ED in living human sperm. We used a commercial MARCKS peptide, the tetramethylrhodamine-conjugated peptide sequence KKRFSFKKSFKL (ED-TMR) derived from amino acid residues 154 –165 of human MARCKS ED, which retains the first two of the four serine residues in the ED (see peptide scheme in Fig. 3A). First, we determined the permeability of ED-TMR in living human sperm (see Fig. S3). To rule out that the translocation of the protein was a fixation artifact, cells were treated with trypsin before fixation. […] A similar permeable MARCKS peptide has been used in sea urchin sperm and it was found enriched in the acrosome region.
Supplementary file pone.0064551.s003.tif: Figure S3 MARCKS peptide permeates into non-permeabilized sperm. (A) Non-permeabilized sperm were treated for 30 minutes at 37°C with 4 µM permeable MARCKS ED domain (ED-TMR) and then incubated with (+) or without (-) 0.5 µg/ml trypsin for 30 minutes at 37°C. […] (B) Quantification of tetramethylrhodamine-labeled acrosome sperm. At least 300 cells were scored. […]

Question: What does the source list for “KKRFSFKKSFKL (also: tetramethylrhodamine conjugate, site not given here) [ED-TMR, commercial (Anaspec) tetramethylrhodamine-conjugated peptide … from residues 154–165 of human MARCKS ED]”?
Answer: effect on the increase in calcium levels caused by progesterone [1]: significantly diminished; permeability of ED-TMR in living human sperm (localisation) [2]: detected mainly in the head of human sperm
